# Reference: US20250041624A1, “METHOD FOR ENHANCING ACTIVITY OF PHOTOSENSITIZER BY MAGNETIC FIELD” (PEKING UNIVERSITY, priority 2021, published 2025)
# Key:
# HeLa cells [1] = assay: Annexin V-FITC/PI apoptosis flow cytometry of HeLa cells; assay type: cell-based; settings: RB 30 μmol/L; for percentage of apoptotic cells: light 561 nm 5 mW·cm−2 10 min
# Method: (2) HeLa cells (2×10^4/well) are seeded in 6-well plates and cultured for 24 hours, added with RB solution (final concentration 30 μmol/L) or PBS buffer (final concentration 0.01 mol/L), and after treating 24 hours, cells are washed 3 times with PBS buffer.
# The cells are placed under a magnetic field at 0, 250 or 800 mT, simultaneously with light (561 nm, 5 mW·cm^−2) or in the dark, and treated 10 minutes. After 24 hours incubation in the dark, cells are stained with Annexin V-FITC/PI Apoptosis Kit (available from Biyotime Biotechnology Co. Ltd), are detected by flow cytometry (BD FACSVerse, Becton Dickinson) and are statistically analysized three times every group, and results are shown in FIG. 13, in which Quadrant Q4 is for the number of healthy cells, Q1 is for the number of early apoptotic cells, Q2 is for the number of late apoptotic cells and Q3 is for the number of necrotic cells.
# [2] = Reaction rate of KI with 1O2 (I3− absorbance at 350 nm) under light and magnetic field; assay type: physicochemical
# Method: (1) The photosensitizers Rose Bengal (RB) and potassium iodide KI are dissolved in water, with the concentrations of photosensitizer and KI is 10 μmol/L and 10 mmol/L, respectively in the resulting solution. […] The above UV-vis absorption spectra tests are performed in the strength range of the magnetic field from 0 to 850 mT respectively.
# (2) The photosensitizer chlorin e6 (Ce6, Chlorin e6) and potassium iodide KI are dissolved in water, with the concentrations of the photosensitizer and KI of 10 μmol/L and 10 mmol/L in the resulting solutions. In a magnetic field with certain strength, the solutions are exposed to a 635 nm LED lamp (light emitting diode) at a power of 5 mW·cm^−2, and tested for absorption spectra every 15 seconds over 5 min, and the absorbance at 350 nm is recorded to obtain absorbance versus time curves. The above UV-vis absorption spectra are obtained at a magnetic field strength range from 0 to 850 mT, respectively.
# External magnetic field is supplied by East Transformer (Beijing) EM4 electromagnets. Ultraviolet-visible absorption spectra are tested with Agilent 8453 UV/Visible spectrometer equipped with Agilent 89090A thermostat (±0.1° C.).
# Under irradiation conditions, photosensitizer is excited to produce singlet oxygen ^1O2, and KI reacts with ^1O2 to give I2 and target detector, iodine triion I3^−, characterized by absorption bands centered at 300 and 350 nm in UV-vis absorption spectrum. The reaction rate is R, which is proportional to the slope of absorbance-time curve of iodine triion I3^− at 350 nm.
# In the present invention, the magnetic field effects (MFEs) is quantified by mfeR, the change rate of the reaction rate R, mfeR=(RB−R0)/R0×100%, where R0 is the reaction rate at a magnetic field strength of 0 mT and RB is the reaction rate at a magnetic field strength of B mT.
# (3) The RB/KI solution in experiment (1) of this Example is placed in a magnetic field modulated with square wave (90 s for the first period, a magnetic field strength of 0 mT for the first 45 s and 100 mT for the last 45 s; 60 s for the last three cycles, a magnetic field strength of 0 mT for the first 30 s and 100 mT for the last 30 s). Under 561 nm LED (Light Emitting Diode) irradiation with 5 mW·cm^−2, absorption spectra are tested every 5 seconds over 5 min. and the absorbance at 350 nm is recorded, to obtain an absorbance-time curve, as shown in FIG. 6.
# HeLa cells [3] = assay: 14-day culture and crystal violet staining of HeLa cells after light and magnetic field; assay type: cell-based
# Method: (2) HeLa cells (1×10^3/well) are seeded in 6-well plates, 30 μL aqueous solution of RB (final concentration of 30 μM) or equal volume 0.01M PBS buffer is added as control, and, after 24 h incubation in DMEM (comprising FBS) medium, cells are washed 3 times with PBS buffer.
# The cells are treated in the dark or with 10 min light (561 nm […], 5 mW·cm^−2) under magnetic field conditions at 0 mT, 250 mT, 800 mT respectively. Culture is continued in the dark, and media is changed every other day. After 14 days, it is rinsed with PBS buffer and methanol, and cells are stained with added 0.1 wt % aqueous solution of crystal violet, and the number of cells in the plate is shown in FIG. 9; and the relative cell activity of HeLa cells at a concentration of 30 μmol/L RB under the magnetic field conditions of 0 mT, 250 mT, 800 mT is shown in FIG. 10.
compound,measurement,setting,value
"O=C1OC2(c3cc(I)c(O)c(I)c3Oc3c2cc(I)c(O)c3I)c2c(Cl)c(Cl)c(Cl)c(Cl)c21 [RB, Rose Bengal]",percentage of apoptotic cells,HeLa cells [1]; 250 mT,75.9%
same,percentage of apoptotic cells,HeLa cells [1]; 800 mT,32.9%
same,percentage of apoptotic cells,HeLa cells [1]; no magnetic field,63.8%
same,increase of percentage of apoptotic cells vs no magnetic field,"HeLa cells [1]; light, 250 mT",19%
same,mfeR (change rate of reaction rate R of KI with 1O2),"[2]; RB 10 μmol/L, KI 10 mmol/L, 561 nm 5 mW·cm−2, maximum at MF=80-135 mT",46%
same,mfeR (change rate of reaction rate R of KI with 1O2),"[2]; RB 10 μmol/L, KI 10 mmol/L, 561 nm 5 mW·cm−2, minimum at MF=14 mT",33%
same,increase of R value on average compared to 0 mT,"[2]; RB/KI, square-wave modulated field, 100 mT vs 0 mT, FIG. 7",about 45%
same,mfeR (change rate of reaction rate R of KI with 1O2),"[2]; RB, MF from 34 to 355 mT, FIG. 5",> 0%
same,mfeR (change rate of reaction rate R of KI with 1O2),"[2]; RB, MF from 50 to 220 mT, FIG. 5",> 20%
same,cytotoxicity against HeLa cells in the absence of light,"HeLa cells [3]; RB 30 μM, dark, with or without magnetic field, FIG. 9",no cytotoxicity
same,cell numbers relative to PBS-only treatment,"HeLa cells [3]; RB 30 μM, light alone (0 mT), 14 days, FIG. 9",significantly lower
same,cell numbers,"HeLa cells [3]; RB 30 μM, light, 250 mT, 14 days, FIG. 9",the least
same,cell numbers,"HeLa cells [3]; RB 30 μM, light, 800 mT, 14 days, FIG. 9",more under 800 mT conditions compared to 0 mT and 250 mT conditions
same,reduction of cell number relative to 0 mT,"HeLa cells [3]; RB 30 μmol/L, light, 250 mT, FIG. 10",17%
same,increase of cell number relative to 0 mT,"HeLa cells [3]; RB 30 μmol/L, light, 800 mT, FIG. 10",32%
